This note sets out measurements from ChEMBL document CHEMBL4665678, “Overview of AKR1C3: Inhibitor Achievements and Disease Insights” (J Med Chem, 2020).

Residue numbers refer to the chain shown, from its start.

Series [1] addresses T1, Prostaglandin G/H synthase 2 (Homo sapiens, UniProt P35354).
T1 sequence (P35354 whole entry): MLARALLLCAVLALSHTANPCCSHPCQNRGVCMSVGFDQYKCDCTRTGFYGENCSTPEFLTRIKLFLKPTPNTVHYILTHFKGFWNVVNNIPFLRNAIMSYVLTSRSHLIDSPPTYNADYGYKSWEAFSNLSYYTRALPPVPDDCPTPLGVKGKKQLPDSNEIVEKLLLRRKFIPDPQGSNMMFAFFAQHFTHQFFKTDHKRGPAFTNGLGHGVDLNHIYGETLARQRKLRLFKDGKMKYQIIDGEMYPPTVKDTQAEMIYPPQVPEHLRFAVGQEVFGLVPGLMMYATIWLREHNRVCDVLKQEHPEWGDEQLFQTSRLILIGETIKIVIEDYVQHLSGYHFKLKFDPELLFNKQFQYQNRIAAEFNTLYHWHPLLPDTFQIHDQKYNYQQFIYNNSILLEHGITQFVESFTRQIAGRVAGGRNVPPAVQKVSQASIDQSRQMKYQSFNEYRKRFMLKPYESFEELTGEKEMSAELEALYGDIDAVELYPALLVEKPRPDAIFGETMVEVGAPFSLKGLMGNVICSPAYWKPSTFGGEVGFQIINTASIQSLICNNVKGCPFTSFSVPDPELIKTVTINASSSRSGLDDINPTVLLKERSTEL
In words: Inhibition of human COX-2 expressed in Sf9 insect cells using [14C] arachidonic acid as substrate preincubated for 20 mins followed by substrate addition measured after 30 sec by thin layer chromatography assay.

The target in a further series is T2, AKR1C1 (Homo sapiens, UniProt Q04828).
T2 sequence (Q04828 whole entry): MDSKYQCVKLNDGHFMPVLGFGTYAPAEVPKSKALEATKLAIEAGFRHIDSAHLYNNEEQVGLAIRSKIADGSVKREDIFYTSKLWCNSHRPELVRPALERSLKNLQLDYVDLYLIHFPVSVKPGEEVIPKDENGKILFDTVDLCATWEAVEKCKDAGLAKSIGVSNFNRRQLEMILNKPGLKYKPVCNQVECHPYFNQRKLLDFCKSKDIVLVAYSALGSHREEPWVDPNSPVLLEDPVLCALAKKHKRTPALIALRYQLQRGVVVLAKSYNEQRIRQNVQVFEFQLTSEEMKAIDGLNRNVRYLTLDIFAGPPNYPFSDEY
In words: Inhibition of AKR1C1 (unknown origin) using 9,10-phenanthrenequinone as substrate at 60 uM relative to control. The conditions noted are these: probe 9,10-phenanthrenequinone.

The target of series [2] is T3, Aldo-keto reductase family 1 member C3 (Homo sapiens, UniProt P42330).
T3 sequence (P42330 whole entry): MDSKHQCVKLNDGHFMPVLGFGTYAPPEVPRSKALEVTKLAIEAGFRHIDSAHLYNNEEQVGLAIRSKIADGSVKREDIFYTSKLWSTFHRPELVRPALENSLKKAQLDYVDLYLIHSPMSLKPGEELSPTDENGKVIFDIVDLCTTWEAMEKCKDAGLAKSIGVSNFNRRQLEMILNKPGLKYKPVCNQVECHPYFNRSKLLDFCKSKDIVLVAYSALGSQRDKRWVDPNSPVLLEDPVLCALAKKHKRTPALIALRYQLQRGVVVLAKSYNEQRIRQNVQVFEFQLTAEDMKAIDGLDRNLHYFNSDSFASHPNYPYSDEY
Briefly: Inhibition of AKR1C3 (unknown origin) using 4-androstene-3,17-dione as substrate.

In the next series the target is T4, AKR1C2 (Homo sapiens, UniProt P52895).
T4 sequence (P52895 whole entry): T2 sequence (Q04828 whole entry) with T38V, R47H, L54V, C87S, V151M, R170H, Q172L
In words: Inhibition of AKR1C2 (unknown origin) using 9,10-phenanthrenequinone as substrate at 60 uM relative to control. The settings on record: probe 9,10-phenanthrenequinone.

For series [3], the target named is T5, Prostaglandin G/H synthase 1 (Ovis aries, UniProt P05979).
T5 sequence (P05979 whole entry): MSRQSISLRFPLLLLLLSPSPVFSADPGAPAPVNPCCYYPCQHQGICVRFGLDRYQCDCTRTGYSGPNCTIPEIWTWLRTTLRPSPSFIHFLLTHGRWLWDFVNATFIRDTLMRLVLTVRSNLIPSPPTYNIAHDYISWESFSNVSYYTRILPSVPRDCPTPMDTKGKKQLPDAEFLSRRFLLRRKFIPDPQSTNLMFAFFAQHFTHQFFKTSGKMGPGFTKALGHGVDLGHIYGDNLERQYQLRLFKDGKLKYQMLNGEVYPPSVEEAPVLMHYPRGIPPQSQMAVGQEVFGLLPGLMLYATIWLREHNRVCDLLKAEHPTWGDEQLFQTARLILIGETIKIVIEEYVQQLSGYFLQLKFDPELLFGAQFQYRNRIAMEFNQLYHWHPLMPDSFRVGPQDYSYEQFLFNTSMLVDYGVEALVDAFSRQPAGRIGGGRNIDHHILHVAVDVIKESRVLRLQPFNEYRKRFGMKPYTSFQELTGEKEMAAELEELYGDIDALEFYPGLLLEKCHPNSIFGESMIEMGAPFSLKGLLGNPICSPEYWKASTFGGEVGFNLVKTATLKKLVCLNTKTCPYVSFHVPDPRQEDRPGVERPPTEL
In words: Inhibition of ovine COX-1 using [14C] arachidonic acid as substrate preincubated for 20 mins followed by substrate addition measured after 30 sec by thin layer chromatography assay.

In series [4] the target is T3, Aldo-keto reductase family 1 member C3. In words: Inhibition of AKR1C3 (unknown origin) using 9,10-phenanthrenequinone as substrate.
For series [5] the target is unchanged. Briefly: Inhibition of N-terminal His-tagged human AKR1C3 (1 to 323 residues) expressed in Escherichia coli using 4-adione as substrate in presence of NADPH by fluorescence method.
The target is the same in series [6]. In words: Inhibition of human AKR1C3 expressed in Escherichia coli incubated for 30 mins in presence of NADPH regeneration system by UHPLC analysis.
The target is the same in series [7]. Briefly: Inhibition of human AKR1C3 expressed in Escherichia coli incubated for 30 mins in presence of NADPH regeneration system by UHPLC method based Lineweaver-Burk double-reciprocal plot analysis.
Series [8] has the same target. In words: Inhibition of AKR1C3 (unknown origin) expressed in human HCT116 cells incubated for 2 to 4 hrs by UHPLC analysis. Type of series: cell-based, HCT-116.
The target is the same in series [9]. In words: Inhibition of AKR1C3 (unknown origin) expressed in human HCT116 cells incubated for 3 to 6 hrs by UHPLC analysis. Type of series: cell-based, HCT-116.
Series [10] concerns the target T6, Aldo-keto reductase family 1 member C2 (Homo sapiens, UniProt P52895).
T6 sequence (P52895 whole entry): T2 sequence (Q04828 whole entry) with T38V, R47H, L54V, C87S, V151M, R170H, Q172L
Briefly: Inhibition NH2-terminal His6-tagged recombinant human AKR1C2 expressed in Escherichia coli BL21(DE3) cells using assessed as phenanthrenequinone reduction.

Series [11] concerns the target T7, Aldo-keto reductase family 1 member C3 (Homo sapiens) (UniProt P42330).
T7 sequence (whole entry): T3 sequence (P42330 whole entry)
In words: Inhibition NH2-terminal His6-tagged recombinant human AKR1C3 expressed in Escherichia coli BL21(DE3) cells using assessed as phenanthrenequinone reduction.

The target in series [12] is T8, Aldo-keto reductase family 1 member C1 (Homo sapiens, UniProt Q04828).
T8 sequence (Q04828 whole entry): T2 sequence (Q04828 whole entry)
Briefly: Inhibition of NH2-terminal His6-tagged recombinant human AKR1C1 expressed in Escherichia coli BL21(DE3) cells using assessed as phenanthrenequinone reduction.

Series [13] deals with T3, Aldo-keto reductase family 1 member C3. Briefly: Inhibition of human AKR1C3 expressed in Escherichia coli preincubated for 15 mins followed by Adion addition and measured after 30 mins by HPLC analysis.

For orientation: IC50 means the concentration needed to halve the response being measured. The term inhibition denotes how much of the control response was suppressed. Low readings indicate a response near the control, high ones a response far below the control. For `COc1ccc2c(c1)c(CCNC(C)=O)cn2C(=O)c1ccc(Cl)cc1`, the IC50 in series [1] was greater than 60 µM; in series [2], 11.4 µM; in series [3], greater than 60 µM; in series [4], 7.8 µM. In addition, the inhibition at 60 µM against AKR1C1 and on AKR1C2 was less than 10% each time.

With `COc1ccc2cc3[n+](cc2c1OC)CCc1cc2c(cc1-3)OCO2` [BERBERINE], the IC50 in series [5] was found to be 4.08 µM.

As to `Nc1cc(C(F)(F)F)c(-c2cc(N3CCOCC3)nc(N3CCOCC3)n2)cn1` [BUPARLISIB], the values for the IC50 in [6] and in series [8] were 9.5 µM and 7.9 µM, respectively. In series [7], the Ki was found to be 14 µM.

Consider `CCc1cnn2c(NCc3ccc[n+]([O-])c3)cc(N3CCCC[C@H]3CCO)nc12` [DINACICLIB], for which the Ki in series [6] (read-out: Ki(app)) was determined as 0.07 µM. In addition, in series [9], 0.23 µM corresponded to half-maximal inhibition (IC50).

Turning to `CC/C=C\CC1C(=O)CCC1CC(=O)OC` (stereo unspecified) [METHYL JASMONATE], the Kis in series [10] worked out at 49 uM/L; in [11] it was 153 µM/L; in series [12] it was 162 uM/L.

As for `CO[C@@H]1C=C[C@@]23c4cc5c(cc4CO[C@]2(O)CN(C)[C@H]3C1)OCO5` [TAZETTINE], in series [13], the concentration for half-maximal inhibition (IC50) was 15.8 µM.
